This note sets out measurements from patent publication US9493444B2 (Merck Patent GmbH, priority 2012, dated 2016).

Where only a bound is given, the exact number is not on record here.

The subject of the test is Wnt pathway (TCF-dependent transcription in HEK293 luciferase reporter cell line with ER-DSH construct). Briefly: Cellular assay for Wnt pathway activity (luciferase reporter). Particulars: Homo sapiens; Wnt pathway inhibition, HEK293 luciferase reporter cells (ER-DSH, TCF promoter), 24 hours incubation, estrogen-induced. The class given is cell-based. How it is done: 1. Cellular Assay for Wnt Pathway Activity
Compounds were tested for their Wnt pathway inhibitory activities using a luciferase reporter cell based assay. A HEK293 luciferase reporter cell line was used which contained an Estrogen Receptor-Dishevelled (ER-DSH) construct and a T-Cell Factor (TCF) dependent gene promoter luciferase construct.
Compounds, in concentrations from 30 μM down to 1 nM, were incubated for 24 hours on the cells, which were induced for TCF-dependent transcription by the addition of estrogen (10). Luciferase activities were determined using the ONE GLO Luciferase Assay System (Promega) and the ENVISION microplate reader (Perkin Elmer). For analysis, the obtained data were normalized against the untreated vehicle control and fitted for determination of the IC50 values using the Assay Explorer software (Accelrys).
(In general: A reporter such as luciferase makes a cellular process visible.)
In general, IC50 refers to the concentration at which inhibition is half-maximal. The low end stands for greater potency, the high end for weaker potency. `COc1ccc(Oc2cncc(N(C)CCN(C)C(=O)Cc3ccc(F)cc3)n2)cc1` [Compound 63, 2-(4-Fluoro-phenyl)-N-(2-{[6-(4-methoxy-phenoxy)-pyrazin-2-yl]-methyl-amino}-ethyl)-N-methyl-acetamide] registered a concentration for half-maximal inhibition (IC50) of 1 to 10 µM. Take `COc1ccc(Oc2cncc(N(C)CCN(C)C(=O)CCC(C)C)n2)cc1` [Compound 64, 4-Methyl-pentanoic acid (2-{[6-(4-methoxy-phenoxy)-pyrazin-2-yl]-methyl-amino}-ethyl)-methyl-amide]: the IC50 was in the range of 1 to 10 µM.

Take `CSc1ccc(Oc2cncc(N(C)CCN(C)C(C)=O)n2)cc1` [Compound 65, N-Methyl-N-(2-{methyl-[6-(4-methyl-sulfanyl-phenoxy)-pyrazin-2-yl]-amino}-ethyl)-acetamide]: the 50% inhibitory concentration (IC50) is < 0.2 µM. `CC(=O)N(C)CCNc1cncc(Oc2ccc(F)cc2)n1` [Compound 66, N-{2-[6-(4-Fluoro-phenoxy)-pyrazin-2-ylamino]-ethyl}-N-methyl-acetamide] yielded a half-maximal inhibitory concentration (IC50) of 1 to 10 µM. Next, `COc1ccc(Oc2cncc(NCCN(C)C(C)=O)n2)cc1` [Compound 67, N-{2-[6-(4-Methoxy-phenoxy)-pyrazin-2-ylamino]-ethyl}-N-methyl-acetamide]: 1 to 10 µM; `CCNC(=O)N(C)CCN(C)c1cncc(Oc2ccc(OC)cc2)n1` [Compound 69, 3-Ethyl-1-(2-{[6-(4-methoxy-phenoxy)-pyrazin-2-yl]-methyl-amino}-ethyl)-1-methyl-urea]: 1 to 10 µM; `CCN(CCNc1cncc(Oc2cccc(F)c2)n1)C(C)=O` [Compound 70, N-Ethyl-N-{2-[6-(3-fluoro-phenoxy)-pyrazin-2-ylamino]-ethyl}-acetamide]: 1 to 10 µM. `CCN(CCNc1cncc(Oc2ccc(OC)cc2)n1)C(C)=O` [Compound 71, N-Ethyl-N-{2-[6-(4-methoxy-phenoxy)-pyrazin-2-ylamino]-ethyl}-acetamide]: the IC50 lay in the range of 0.2 to 1 µM. `CCN(CCNc1cncc(Oc2ccc(F)cc2)n1)C(C)=O` [Compound 72, N-Ethyl-N-{2-[6-(4-fluoro-phenoxy)-pyrazin-2-ylamino]-ethyl}-acetamide] showed a 50% inhibitory concentration (IC50) of 1 to 10 µM.

`CCN(CC1CCCN(c2cncc(Oc3ccc(OC)cc3)n2)C1)C(C)=O` (stereo not shown) [Compound 73, N-Ethyl-N-{1-[6-(4-methoxy-phenoxy)-pyrazin-2-yl]-piperidin-3-ylmethyl}-acetamide] came in with a 50% inhibitory concentration (IC50) of 1 to 10 µM. As to `CN(CCN(C)c1cncc(Oc2ccc3ncccc3c2)n1)C(=O)C(F)(F)F` [Compound 74, 2,2,2-Trifluoro-N-methyl-N-(2-{methyl-[6-(quinolin-6-yloxy)-pyrazin-2-yl]-amino}-ethyl)-acetamide], the IC50 fell in the range of 1 to 10 µM. For `CSc1cccc(Oc2cncc(N(C)CCN(C)C(=O)C(F)F)n2)c1` [Compound 75, 2,2-Difluoro-N-methyl-N-(2-{methyl-[6-(3-methyl-sulfanyl-phenoxy)-pyrazin-2-yl]-amino}-ethyl)-acetamide], the concentration for half-maximal inhibition (IC50) lay within 1 to 10 µM. In the case of `CSc1cccc(Oc2cncc(N(C)CCN(C)C(=O)CF)n2)c1` [Compound 76, 2-Fluoro-N-methyl-N-(2-{methyl-[6-(3-methyl-sulfanyl-phenoxy)-pyrazin-2-yl]-amino}-ethyl)-acetamide], the 50% inhibitory concentration (IC50) was 0.2 to 1 µM. The result for `CCN(CCN(C)c1cncc(Oc2ccc(OC)cc2)n1)C(C)=O` [Compound 77, N-Ethyl-N-(2-{[6-(4-methoxy-phenoxy)-pyrazin-2-yl]-methyl-amino}-ethyl)-acetamide] reads < 0.2 µM. Next, `COC(=O)N(C)CCN(C)c1cncc(Oc2ccc(OC)cc2)n1` [Compound 78, (2-{[6-(4-Methoxy-phenoxy)-pyrazin-2-yl]-methyl-amino}-ethyl)-methyl-carbamic acid methyl ester]: 1 to 10 µM. For the compound `COc1ccc(Oc2cncc(N(C)CCN(C)C(=O)C(F)(F)F)n2)cc1` [Compound 79, 2,2,2-Trifluoro-N-(2-{[6-(4-methoxy-phenoxy)-pyrazin-2-yl]-methyl-amino}-ethyl)-N-methyl-acetamide], the IC50 lay within 1 to 10 µM. The result for `COc1ccc(Oc2cncc(N(C)CCCN(C)C(C)=O)n2)cc1` [Compound 80, N-(3-{[6-(4-Methoxy-phenoxy)-pyrazin-2-yl]-methyl-amino}-propyl)-N-methyl-acetamide] reads 1 to 10 µM. Next, `COc1ccc(Oc2cncc(N(C)CCCN(C)C(=O)C(F)(F)F)n2)cc1` [Compound 81, 2,2,2-Trifluoro-N-(3-{[6-(4-methoxy-phenoxy)-pyrazin-2-yl]-methyl-amino}-propyl)-N-methyl-acetamide]: 1 to 10 µM. The result for `CCN(CCN(C)c1cncc(Oc2cccc(F)c2)n1)C(C)=O` [Compound 82, N-Ethyl-N-(2-{[6-(3-fluoro-phenoxy)-pyrazin-2-yl]-methyl-amino}-ethyl)-acetamide] reads 0.2 to 1 µM; that for `CC(=O)N(C)CCCN(C)c1cncc(Oc2ccc(F)cc2)n1` [Compound 83, N-(3-{[6-(4-Fluoro-phenoxy)-pyrazin-2-yl]-methyl-amino}-propyl)-N-methyl-acetamide], 1 to 10 µM; that for `CN(CCCN(C)c1cncc(Oc2ccc(F)cc2)n1)C(=O)C(F)(F)F` [Compound 84, 2,2,2-Trifluoro-N-(3-{[6-(4-fluoro-phenoxy)-pyrazin-2-yl]-methyl-amino}-propyl)-N-methyl-acetamide], 1 to 10 µM. As for `CC(=O)N(C)CCN(C)c1cncc(Oc2ccc(C(C)(C)C)cc2)n1` [Compound 85, N-(2-{[6-(4-tert-Butyl-phenoxy)-pyrazin-2-yl]-methyl-amino}-ethyl)-N-methyl-acetamide], the IC50 was < 0.2 µM. `CC(=O)N(C)CCN(C)c1cncc(Oc2ccc(N3CCCCC3=O)cc2)n1` [Compound 86, N-Methyl-N-[2-(methyl-{6-[4-(2-oxo-piperidin-1-yl)-phenoxy]-pyrazin-2-yl}-amino)-ethyl]-acetamide] showed a 50% inhibitory concentration (IC50) of 0.2 to 1 µM.

Regarding `CC(=O)N(C)CCN(C)c1cncc(Oc2ccc(N3CCN(C(C)=O)CC3)cc2)n1` [Compound 87, N-[2-({6-[4-(4-Acetyl-piperazin-1-yl)-phenoxy]-pyrazin-2-yl}-methyl-amino)-ethyl]-N-methyl-acetamide], the IC50 fell in the range of 0.2 to 1 µM. In turn, `CC(=O)N(C)CCN(C)c1cncc(Oc2ccc(Cl)c(C(F)(F)F)c2)n1` [Compound 88, N-(2-{[6-(4-Chloro-3-trifluoro-methyl-phenoxy)-pyrazin-2-yl]-methyl-amino}-ethyl)-N-methyl-acetamide] showed an IC50 of 1 to 10 µM. As for `CC(=O)N(C)CCN(C)c1cncc(Oc2ccc(Cl)c(Cl)c2)n1` [Compound 89, N-(2-{[6-(3,4-Dichloro-phenoxy)-pyrazin-2-yl]-methyl-amino}-ethyl)-N-methyl-acetamide], the half-maximal inhibitory concentration (IC50) is 0.2 to 1 µM. Consider `CCN(CCN(C)c1cncc(Oc2ccc(F)cc2)n1)C(C)=O` [Compound 90, N-Ethyl-N-(2-{[6-(4-fluoro-phenoxy)-pyrazin-2-yl]-methyl-amino}-ethyl)-acetamide], for which the IC50 was < 0.2 µM.

As to `CC(=O)N(C)CCN(C)c1cncc(Oc2ccc3c(c2)OCO3)n1` [Compound 91, N-(2-{[6-(Benzo[1,3]dioxol-5-yloxy)-pyrazin-2-yl]-methyl-amino}-ethyl)-N-methyl-acetamide], the IC50 was 0.2 to 1 µM.
